Reference: patent US20230135635A1, “INHIBITORS OF ULK1/2 AND METHODS OF USING SAME” (SALK INSTITUTE FOR BIOLOGICAL STUDIES, priority 2020, published 2023)

Biological target: T1, recombinant human ULK1 protein (1-649) (Homo sapiens, UniProt O75385)
T1 construct: recombinant human ULK1 protein (1-649, SignalChem #U01-11G); purchased SignalChem U01-11G
T1 sequence (O75385 1-649): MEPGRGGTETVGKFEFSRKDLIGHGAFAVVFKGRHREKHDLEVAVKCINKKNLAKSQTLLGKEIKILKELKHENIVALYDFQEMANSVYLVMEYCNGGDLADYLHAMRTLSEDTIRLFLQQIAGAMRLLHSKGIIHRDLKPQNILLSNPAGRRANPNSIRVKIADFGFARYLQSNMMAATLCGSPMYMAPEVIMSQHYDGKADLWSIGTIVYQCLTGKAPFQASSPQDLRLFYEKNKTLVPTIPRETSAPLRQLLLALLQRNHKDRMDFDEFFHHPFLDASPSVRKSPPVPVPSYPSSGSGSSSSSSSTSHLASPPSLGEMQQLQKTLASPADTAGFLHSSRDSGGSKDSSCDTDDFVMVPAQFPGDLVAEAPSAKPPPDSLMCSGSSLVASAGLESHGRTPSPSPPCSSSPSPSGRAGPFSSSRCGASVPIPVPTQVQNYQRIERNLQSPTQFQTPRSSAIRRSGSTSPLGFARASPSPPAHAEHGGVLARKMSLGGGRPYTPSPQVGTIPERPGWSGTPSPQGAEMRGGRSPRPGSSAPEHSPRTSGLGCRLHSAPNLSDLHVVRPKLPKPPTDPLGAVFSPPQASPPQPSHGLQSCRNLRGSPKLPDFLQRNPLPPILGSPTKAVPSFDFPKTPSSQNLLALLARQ
Test: ULK1 inhibition assay (ADP Glo)
Assay type: biochemical
Procedure, shortened: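 Recombinant ULK1 (2 ug/mL) phosphorylated myelin basic protein (80 ug/mL) at 25 uM ATP; ADP formed was detected by ADP-Glo after 1 h. Compounds ran in triplicate, 16-dose 3-fold serial dilution from 30 uM, to give IC50.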

[1] = Table 1, 25 uM ATP, MBP substrate, one hour

Row | SMILES | IC50 [1] | IC50 (Table 2)
1 | CNCC(=O)N1CCc2ccc(Nc3ncc(Br)c(Nc4ccccc4C(=O)NC)n3)cc2C1 [Compound A153, 2-{5-Bromo-2-[2-(2-methylamino-acetyl)-1,2,3,4-tetrahydro-isoquinolin-7-ylamino]-pyrimidin-4-ylamino}-N-methyl-benzamide] | > 10 nM | –
2 | CNC(=O)c1ccccc1Nc1nc(Nc2ccc3c(c2)CN(C(=O)CCN)CC3)ncc1Br [Compound A155, 2-{2-[2-(3-Amino-propionyl)-1,2,3,4-tetrahydro-isoquinolin-7-ylamino]-5-bromo-pyrimidin-4-ylamino}-N-methyl-benzamide] | > 10 nM | –
3 | CNC(=O)c1ccccc1Nc1nc(Nc2ccc3c(c2)CN(C(=O)CCC(=O)O)CC3)ncc1Br [Compound A156, 4-{7-[5-Bromo-4-(2-methylcarbamoyl-phenylamino)-pyrimidin-2-ylamino]-3,4-dihydro-1H-isoquinolin-2-yl}-4-oxo-butyric acid] | > 10 nM | –
4 | CNC(=O)c1ccccc1Nc1nc(Nc2ccc3c(c2)CN(CC(C)O)CC3)ncc1Br (stereo not drawn) [Compound A157, 2-{5-Bromo-2-[2-(2-hydroxy-propyl)-1,2,3,4-tetrahydro-isoquinolin-7-ylamino]-pyrimidin-4-ylamino}-N-methyl-benzamide] | > 10 nM | –
5 | CNC(=O)c1ccccc1Nc1nc(Nc2ccc3c(c2)CN(Cc2ccc(OC)cc2)CC3)ncc1Br [Compound A158, 2-{5-Bromo-2-[2-(4-methoxy-benzyl)-1,2,3,4-tetrahydro-isoquinolin-7-ylamino]-pyrimidin-4-ylamino}-N-methyl-benzamide] | > 10 nM | –
6 | CNC(=O)c1ccccc1Nc1nc(Nc2ccc3c(c2)CN(Cc2cccnc2)CC3)ncc1Br [Compound A159, 2-[5-Bromo-2-(2-pyridin-3-ylmethyl-1,2,3,4-tetrahydro-isoquinolin-7-ylamino)-pyrimidin-4-ylamino]-N-methyl-benzamide] | > 10 nM | –
7 | CNC(=O)c1ccccc1Nc1nc(Nc2ccc3c(c2)CN(Cc2ccncn2)CC3)ncc1Br [Compound A160, 2-[5-Bromo-2-(2-pyrimidin-4-ylmethyl-1,2,3,4-tetrahydro-isoquinolin-7-ylamino)-pyrimidin-4-ylamino]-N-methyl-benzamide] | > 10 nM | –
8 | CNC(=O)c1ccccc1Nc1nc(Nc2ccc3c(c2)CN(S(N)(=O)=O)CC3)ncc1Br [Compound A161, 2-[5-Bromo-2-(2-sulfamoyl-1,2,3,4-tetrahydro-isoquinolin-7-ylamino)-pyrimidin-4-ylamino]-N-methyl-benzamide] | > 10 nM | –
9 | CNC(=O)c1ccccc1Nc1nc(Nc2ccc3c(c2)CN(Cc2ccncc2)CC3)ncc1Br [Compound A162, 2-[5-Bromo-2-(2-pyridin-4-ylmethyl-1,2,3,4-tetrahydro-isoquinolin-7-ylamino)-pyrimidin-4-ylamino]-N-methyl-benzamide] | > 10 nM | –
10 | CNC(=O)c1ccccc1Nc1nc(Nc2ccc3c(c2)CN(Cc2ccccn2)CC3)ncc1Br [Compound A163, 2-[5-Bromo-2-(2-pyridin-2-ylmethyl-1,2,3,4-tetrahydro-isoquinolin-7-ylamino)-pyrimidin-4-ylamino]-N-methyl-benzamide] | > 10 nM | –
11 | CNC(=O)c1ccccc1Nc1nc(Nc2ccc3c(c2)CN(CCC(=O)O)CC3)ncc1Br [Compound A164, 3-{7-[5-Bromo-4-(2-methylcarbamoyl-phenylamino)-pyrimidin-2-ylamino]-3,4-dihydro-1H-isoquinolin-2-yl}-propionic acid] | > 10 nM | –
12 | CNC(=O)c1ccccc1Nc1nc(Nc2ccc3c(c2)CN(CCC(N)=O)CC3)ncc1Br [Compound A166, 2-{5-Bromo-2-[2-(2-carbamoyl-ethyl)-1,2,3,4-tetrahydro-isoquinolin-7-ylamino]-pyrimidin-4-ylamino}-N-methyl-benzamide] | > 10 nM | –
13 | CNC(=O)c1ccccc1Nc1nc(Nc2ccc3c(c2)CN(C)CC3)ncc1Br [Compound A167, 2-[5-Bromo-2-(2-methyl-1,2,3,4-tetrahydro-isoquinolin-7-ylamino)-pyrimidin-4-ylamino]-N-methyl-benzamide] | > 10 nM | –
14 | CNC(=O)c1ccccc1Nc1nc(Nc2ccc3c(c2)C[N+](C)(C)CC3)ncc1Br [Compound A168, 7-[5-Bromo-4-(2-methylcarbamoyl-phenylamino)-pyrimidin-2-ylamino]-2,2-dimethyl-1,2,3,4-tetrahydro-isoquinolinium; iodide] | > 10 nM | –
15 | CNC(=O)c1ccccc1Oc1nc(Nc2cc(F)c(F)c(F)c2)ncc1Br [Compound B1] | – | > 1000 nM
16 | COc1cc(Nc2ncc(Br)c(Oc3ccccc3C(=O)N(C)CCO)n2)cc(OC)c1OC [Compound B3] | – | 100 to 1000 nM
17 | COC(=O)CN(C)C(=O)c1ccccc1Oc1nc(Nc2cc(OC)c(OC)c(OC)c2)ncc1Br [Compound B5] | – | 100 to 1000 nM
18 | COc1cc(Nc2ncc(Br)c(Oc3ccccc3C(=O)NCC(F)(F)F)n2)cc(OC)c1OC [Compound B6] | – | 100 to 1000 nM
19 | COc1cc(Nc2ncc(Br)c(Oc3ccccc3C(=O)NCCN(C)C)n2)cc(OC)c1OC [Compound B7] | – | > 1000 nM
20 | COc1cc(Nc2ncc(Br)c(Oc3ccccc3C(=O)NCCS(C)(=O)=O)n2)cc(OC)c1OC [Compound B8] | – | > 1000 nM
21 | COc1cc(Nc2ncc(Br)c(Oc3ccccc3C(=O)N3CCOCC3)n2)cc(OC)c1OC [Compound B9] | – | > 1000 nM
22 | COC(=O)c1ccccc1Oc1nc(Nc2ccc(N3CCN(C)CC3)cc2)ncc1Br [Compound B11] | – | < 100 nM
23 | COC(=O)c1ccccc1Oc1nc(Nc2ccc(N3CCOCC3)cc2)ncc1Br [Compound B12] | – | > 1000 nM
24 | COC(=O)c1ccccc1Oc1nc(Nc2ccc(OC(F)(F)F)cc2)ncc1Br [Compound B13] | – | > 1000 nM
25 | COC(=O)c1ccccc1Oc1nc(Nc2cnc3[nH]ccc3c2)ncc1Br [Compound B18] | – | > 1000 nM
26 | COC(=O)c1ccccc1Oc1nc(Nc2ccc(OC(F)F)cc2)ncc1Br [Compound B25] | – | > 1000 nM
27 | COC(=O)c1ccccc1Oc1nc(Nc2ccc(N3CCCC3)cc2)ncc1Br [Compound B27] | – | > 1000 nM
28 | COC(=O)c1ccccc1Oc1nc(Nc2cccc(OC(F)(F)F)c2)ncc1Br [Compound B40] | – | > 1000 nM

Next, values leading:

Row | IC50 [1] | IC50 (Table 2) | SMILES
29 | – | < 100 nM | COC(=O)c1ccccc1Oc1nc(Nc2cc(OC)c(OC)c(OC)c2)ncc1Br [Compound B2]
30 | – | 100 to 1000 nM | COc1cc(Nc2ncc(Br)c(Oc3ccccc3C(=O)O)n2)cc(OC)c1OC [Compound B4]
31 | – | > 1000 nM | COc1cc(Nc2ncc(Br)c(Oc3ccccc3C(=O)NCCC#N)n2)cc(OC)c1OC [Compound B10]
32 | – | > 1000 nM | COC(=O)c1ccccc1Oc1nc(Nc2ccc3c(c2)OCCO3)ncc1Br [Compound B14]
33 | – | < 100 nM | COc1cc(Nc2ncc(Br)c(Oc3ccccc3C(=O)N(C)O)n2)cc(OC)c1OC [Compound B15]
34 | – | > 1000 nM | COC(=O)c1ccccc1Oc1nc(Nc2cc(C)c(C)c(C)c2)ncc1Br [Compound B16]
35 | – | > 1000 nM | COC(=O)c1ccccc1Oc1nc(Nc2ccc(OC)c(OC)c2)ncc1Br [Compound B17]
36 | – | > 1000 nM | COC(=O)c1ccccc1Oc1nc(Nc2ccc(OC)cc2)ncc1Br [Compound B19]
37 | – | > 1000 nM | COC(=O)c1ccccc1Oc1nc(Nc2ccc3c(c2)OCO3)ncc1Br [Compound B20]
38 | – | > 1000 nM | COC(=O)c1ccccc1Oc1nc(Nc2cccc(C(N)=O)c2)ncc1Br [Compound B21]
39 | – | > 1000 nM | COC(=O)c1ccccc1Oc1nc(Nc2ccc3[nH]cnc3c2)ncc1Br [Compound B22]
40 | – | > 1000 nM | COC(=O)c1ccccc1Oc1nc(Nc2cccc(OC)c2)ncc1Br [Compound B23]
41 | – | 100 to 1000 nM | COC(=O)c1ccccc1Oc1nc(Nc2ccc(N(C)C)cc2)ncc1Br [Compound B24]
42 | – | 100 to 1000 nM | COC(=O)c1ccccc1Oc1nc(Nc2ccc3[nH]ncc3c2)ncc1Br [Compound B26]
43 | – | > 1000 nM | COC(=O)c1ccccc1Oc1nc(Nc2cccc(C(F)(F)F)c2)ncc1Br [Compound B28]
44 | – | > 1000 nM | COC(=O)c1ccccc1Oc1nc(Nc2cccc(OC(F)F)c2)ncc1Br [Compound B29]
45 | – | > 1000 nM | COC(=O)c1ccccc1Oc1nc(Nc2ccc3c(c2)CCO3)ncc1Br [Compound B30]
46 | – | > 1000 nM | COC(=O)c1ccccc1Oc1nc(Nc2ccc3[nH]ccc3c2)ncc1Br [Compound B31]
47 | – | > 1000 nM | COC(=O)c1ccccc1Oc1nc(Nc2ccc(SC)cc2)ncc1Br [Compound B32]
48 | – | > 1000 nM | COC(=O)c1ccccc1Oc1nc(Nc2ccc3c(c2)COC3)ncc1Br [Compound B33]
49 | – | > 1000 nM | COC(=O)c1ccccc1Oc1nc(Nc2cc(F)c(OC)c(F)c2)ncc1Br [Compound B34]
50 | – | > 1000 nM | COC(=O)c1ccccc1Oc1nc(Nc2ccc3occc3c2)ncc1Br [Compound B35]
51 | – | > 1000 nM | COC(=O)c1ccccc1Oc1nc(Nc2ccc(O)cc2)ncc1Br [Compound B36]
52 | – | 100 to 1000 nM | COC(=O)c1ccccc1Oc1nc(Nc2ccc(N)cc2)ncc1Br [Compound B37]
53 | – | > 1000 nM | COC(=O)c1ccccc1Oc1nc(Nc2ccc(CO)cc2)ncc1Br [Compound B38]
54 | – | > 1000 nM | COC(=O)c1ccccc1Oc1nc(Nc2ccc(OC)nc2)ncc1Br [Compound B39]
